Source: patent publication US10793892B2, “Method for detecting the presence of expanded spectrum β-lactamase-producing bacteria in a sample” (INSERM (INSTITUT NATIONAL DE LA SANTE ET DE LA RECHERCHE …, priority 2011, dated 2020)

Experiments:
[1] = tested on: K. pneumoniae; test: ESBL NDP test using spiked blood cultures; assay type: biochemical, Klebsiella pneumoniae; set-up: key: (+) and (−) referred to color change being, red to yellow or unchanged, respectively; (+) and (−) referred to color change being, red to yellow or unchanged, respectively
Description: (§1) Strains were isolated on Mueller-Hinton agar (Biorad, Marnes-la-Coquette, France) and incubated at 37° C. for 16 h to 24 h before performing the NDP rapid ESBL test as follows. One calibrated inoculated loop (10 μl) of the tested strain was resuspended in 150 μl of 20 mM Tris-HCl lysis buffer previously distributed in Microbead tubes (Ultraclean Microbial DNA isolation kit Bead Tubes, MO BIO Laboratories, Carlsbad, USA). Mechanical lysis of bacteria was performed by strong agitation of Microbead tubes using a vortex adapter (MO BIO Laboratories) for 30 min at room temperature. This bacterial suspension was centrifuged at 10,000×g at room temperature for 5 min. Thirty μl of the supernatant was mixed in a well of a 96-well tray with 100 μl of a 1 ml solution made of 3 mg of purified cefotaxime sodium salt (Sigma-Aldrich, Saint-Quentin-Fallavier, France) in a pH 7.8 phenol red solution. […]. The phenol red solution was made by taking 2 ml of a concentrated pH 8 phenol solution (made from a mixture of phenol red 0.5% in distilled water) to which 16.6 ml of distilled water was added. The pH value was then adjusted to a 7.8 value by adding drops of a 1 N NaOH solution. Mixture of the phenol red solution and the enzymatic suspension being tested was incubated at 37° C. for 30 min. Similarly, culture extracts were analyzed in wells containing cefotaxime and tazobactam (4 mg/ml). Other concentrations of tazobactam and other ß-lactamase inhibitors were tested giving less clear results (data not shown). […] This definition of test positivity will be applied throughout the study.
Rapid detection of ESBL producers was attempted from spiked blood cultures which positivity was assessed using the BactAlert blood culture system (bioMérieux). […] This inoculum was reached after 24-48 h incubation in this BactAlert system. Strains were inoculated into blood culture system in presence of 10 ml of sterile blood. The panel of strains used for spiking blood cultures included either non-ESBL producers (n=24) or ESBL producers (n=64) (Table 4). Spiked blood cultures were made of 1×10^3 CFU of each strain and incubated 24 to 48 h before a positivity of the blood culture was detected by the BactAlert system. Then, 15 ml of spiked blood culture were transferred in a sterile tube and centrifuged at 1,500×g for 3 min to pellet the red blood cells. The supernatant was recovered and centrifuged for 15 min at 4,000×g to pellet the bacteria. The bacterial pellet was then resuspended in 500 μl of distilled water, transferred in 1.5 ml tube and thoroughly vortexed for 15 sec to lyse the remnant red blood cells and wash the bacterial pellet. After 5 min of centrifugation at 10,000×g, the bacterial pellet was resuspended in 150 μl of 20 mM Tris-HCl lysis buffer and distributed in beadtubes. The ESBL NDP test was then applied to this pellet as described above. Experiments were systematically performed in triplicate.

[2] = tested on: S. marcescens; test: ESBL NDP test using spiked blood cultures; assay type: biochemical, Serratia marcescens; set-up: key: (+) and (−) referred to color change being, red to yellow or unchanged, respectively; (+) and (−) referred to color change being, red to yellow or unchanged, respectively
Description: Strains were isolated on Mueller-Hinton agar (Biorad, Marnes-la-Coquette, France) and incubated at 37° C. for 16 h to 24 h before performing the NDP rapid ESBL test as follows. One calibrated inoculated loop (10 μl) of the tested strain was resuspended in 150 μl of 20 mM Tris-HCl lysis buffer previously distributed in Microbead tubes (Ultraclean Microbial DNA isolation kit Bead Tubes, MO BIO Laboratories, Carlsbad, USA). Mechanical lysis of bacteria was performed by strong agitation of Microbead tubes using a vortex adapter (MO BIO Laboratories) for 30 min at room temperature. This bacterial suspension was centrifuged at 10,000×g at room temperature for 5 min. Thirty μl of the supernatant was mixed in a well of a 96-well tray with 100 μl of a 1 ml solution made of 3 mg of purified cefotaxime sodium salt (Sigma-Aldrich, Saint-Quentin-Fallavier, France) in a pH 7.8 phenol red solution. […]. […] Similarly, culture extracts were analyzed in wells containing cefotaxime and tazobactam (4 mg/ml). […]
Rapid detection of ESBL producers was attempted from spiked blood cultures which positivity was assessed using the BactAlert blood culture system (bioMérieux). […] Spiked blood cultures were made of 1×10^3 CFU of each strain and incubated 24 to 48 h before a positivity of the blood culture was detected by the BactAlert system. […]

[3] = tested on: E. coli; test: Susceptibility testing, MIC by Etest; assay type: cell-based, Escherichia coli
Description: (§2) Susceptibility testing was performed by determining MIC values using the Etest® (AB bioMérieux; Solna, Sweden) on Mueller-Hinton agar plates at 37° C. and results were recorded according to US guidelines (CLSI), as updated in 2012 (2). The breakpoints for cefotaxime are susceptible (S)≤1 and resistant (R)≥4 μg/ml, and for ceftazidime S≤4 and R≥16 μg/ml.

[4] = tested on: K. pneumoniae; test: ESBL NDP test using cultured strains; assay type: biochemical, Klebsiella pneumoniae; set-up: key: (+) and (−) referred to color change being, red to yellow or unchanged, respectively; (+) and (−) referred to color change being, red to yellow or unchanged, respectively
Description: as §1

[5] = tested on: M. morganii; test: Susceptibility testing, MIC by Etest; assay type: cell-based, Morganella morganii; settings: M. morganii Wild-type, chromosome-encoded cephalosporinase, n=2
Description: as §2

[6] = K. pneumoniae BG 1202 5484, Penicillinase

CO/N=C(\C(=O)N[C@@H]1C(=O)N2C(C(=O)O)=C(COC(C)=O)CS[C@H]12)c1csc(N)n1 [CTX, cefotaxime]
ESBL NDP Test from: Blood culture ([1]; K. pneumoniae 09.127, SHV-2a): + | ESBL NDP Test from: Blood culture ([1]; K. pneumoniae 09.138, TEM-3): + | ESBL NDP Test from: Blood culture ([1]; K. pneumoniae 09.158, SHV-12): + | ESBL NDP Test from: Blood culture ([1]; K. pneumoniae 09.162, TEM-52): + | ESBL NDP Test from: Blood culture ([1]; K. pneumoniae 09.169, TEM-52): + | ESBL NDP Test from: Blood culture ([1]; K. pneumoniae 09.181, SHV-2a): + | ESBL NDP Test from: Blood culture ([1]; K. pneumoniae 09.190, SHV-2a): + | ESBL NDP Test from: Blood culture ([1]; K. pneumoniae 09.200, TEM-3): + | ESBL NDP Test from: Blood culture ([1]; K. pneumoniae 09.217, SHV-5): + | ESBL NDP Test from: Blood culture ([1]; K. pneumoniae 09.45, SHV-12): + | ESBL NDP Test from: Blood culture ([1]; K. pneumoniae 09.60, SHV-5): + | ESBL NDP Test from: Blood culture ([1]; K. pneumoniae 09.99, SHV-2a): + | ESBL NDP Test from: Blood culture ([1]; K. pneumoniae 10.159, CTX-M-3): + | ESBL NDP Test from: Blood culture ([1]; K. pneumoniae ANG, DHA-1): − | ESBL NDP Test from: Blood culture [1, 6]: − | ESBL NDP Test from: Blood culture ([1]; K. pneumoniae FOR, DHA-2): + | ESBL NDP Test from: Blood culture ([1]; K. pneumoniae MEK, CTX-M-15): + | ESBL NDP Test from: Blood culture ([1]; K. pneumoniae SHI, CTX-M-15): + | ESBL NDP Test from: Blood culture ([2]; S. marcescens BG 1107 4243, Wild-type): − | ESBL NDP Test from: Blood culture ([2]; S. marcescens BN 1201 0816, Wild-type): − | MICs range ([3]; E. coli ACC-1, n=1, first line): >16 µg/mL | MICs range ([3]; E. coli ACC-1, n=1, second line): >16 µg/mL | MICs range ([3]; E. coli CMY-2, n=1): >16 µg/mL | MICs range ([3]; E. coli CTX-M-1, n=16): >16 µg/mL | MICs range ([3]; E. coli CTX-M-2, n=3): >16 µg/mL | MICs range ([3]; E. coli CTX-M-3, n=1): >16 µg/mL | MICs range ([3]; E. coli CTX-M-9, n=1): >16 µg/mL | MICs range ([3]; E. coli CTX-M-14, n=15): >16 µg/mL | MICs range ([3]; E. coli CTX-M-27, n=6): >16 µg/mL | MICs range ([3]; E. coli CTX-M-28, n=1): >16 µg/mL | MICs range ([3]; E. coli CTX-M-32, n=1): >16 µg/mL | MICs range ([3]; E. coli CTX-M-97, n=1): >16 µg/mL | MICs range ([3]; E. coli DHA-1, n=1): 0.25 µg/mL | MICs range ([3]; E. coli SHV-3, n=1): 12 µg/mL | MICs range ([3]; E. coli SHV-12, n=1): 0.75 µg/mL | MICs range ([3]; E. coli SHV-12, n=6): >16 µg/mL | MICs range ([3]; E. coli TEM-1 penicillinase, n=5): 0.03 to 0.09 µg/mL | MICs range ([3]; E. coli TEM-12, n=1): 0.5 µg/mL | MICs range ([3]; E. coli TEM-29, n=2): 0.25 µg/mL | MICs range ([3]; E. coli TEM-133, n=1): 0.19 µg/mL | MICs range ([3]; E. coli VEB-1, n=1): 8 µg/mL | MICs range ([3]; E. coli Wild-type, no resistance, n=5): 0.02 to 0.04 µg/mL | ESBL NDP Test from: Colonies ([4]; K. pneumoniae 09.127, SHV-2a): + | ESBL NDP Test from: Colonies ([4]; K. pneumoniae 09.138, TEM-3): + | ESBL NDP Test from: Colonies ([4]; K. pneumoniae 09.158, SHV-12): + | ESBL NDP Test from: Colonies ([4]; K. pneumoniae 09.162, TEM-52): + | ESBL NDP Test from: Colonies ([4]; K. pneumoniae 09.169, TEM-52): + | ESBL NDP Test from: Colonies ([4]; K. pneumoniae 09.181, SHV-2a): + | ESBL NDP Test from: Colonies ([4]; K. pneumoniae 09.190, SHV-2a): − | ESBL NDP Test from: Colonies ([4]; K. pneumoniae 09.200, TEM-3): + | ESBL NDP Test from: Colonies ([4]; K. pneumoniae 09.217, SHV-5): + | ESBL NDP Test from: Colonies ([4]; K. pneumoniae 09.45, SHV-12): + | ESBL NDP Test from: Colonies ([4]; K. pneumoniae 09.60, SHV-5): + | ESBL NDP Test from: Colonies ([4]; K. pneumoniae 09.99, SHV-2a): + | ESBL NDP Test from: Colonies ([4]; K. pneumoniae 10.159, CTX-M-3): + | ESBL NDP Test from: Colonies ([4]; K. pneumoniae ANG, DHA-1): − | ESBL NDP Test from: Colonies [4, 6]: − | Test (color change) ([4]; K. pneumoniae CTX-M-3, n=1): + | Test (color change) ([4]; K. pneumoniae CTX-M-14, n=3): + | Test (color change) ([4]; K. pneumoniae CTX-M-15, n=28): + | Test (color change) ([4]; K. pneumoniae DHA-1, n=1): − | Test (color change) ([4]; K. pneumoniae DHA-2, n=1): + | ESBL NDP Test from: Colonies ([4]; K. pneumoniae FOR, DHA-2): + | Test (color change) ([4]; K. pneumoniae GES-1, n=1): + | ESBL NDP Test from: Colonies ([4]; K. pneumoniae MEK, CTX-M-15): + | ESBL NDP Test from: Colonies ([4]; K. pneumoniae SHI, CTX-M-15): + | Test (color change) ([4]; K. pneumoniae SHV-2a, n=2): − | Test (color change) ([4]; K. pneumoniae SHV-2a, n=4): + | Test (color change) ([4]; K. pneumoniae SHV-5, n=2): + | Test (color change) ([4]; K. pneumoniae SHV-12, n=1): − | Test (color change) ([4]; K. pneumoniae SHV-12, n=2): + | Test (color change) ([4]; K. pneumoniae SHV-28, n=3): + | Test (color change) ([4]; K. pneumoniae TEM-3, n=3): + | Test (color change) ([4]; K. pneumoniae TEM-52, n=2): + | Test (color change) ([4]; K. pneumoniae Wild-type penicillinase, n=2): − | MICs range [5]: 0.03 to 0.75 µg/mL
